For orientation: IC50 means the concentration that gives 50% inhibition.

Structures are written as SMILES.

In this assay the target is T1, Dihydrofolate reductase (Pneumocystis carinii, UniProt P16184).
T1 sequence (P16184 whole entry): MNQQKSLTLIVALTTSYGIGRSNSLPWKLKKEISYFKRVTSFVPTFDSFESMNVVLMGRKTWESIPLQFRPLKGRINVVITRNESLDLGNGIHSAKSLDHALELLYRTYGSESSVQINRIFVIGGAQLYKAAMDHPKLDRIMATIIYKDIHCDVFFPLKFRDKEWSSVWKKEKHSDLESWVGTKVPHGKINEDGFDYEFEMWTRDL
Description: Inhibition of Pneumocystis carinii DHFR.
Molecule `COc1cc(Cc2cnc(N)nc2N)cc(C#CCCC(=O)O)c1OC` had an IC50 of 1 µM.

For `N=C(N)c1ccc(N2CCN(c3ccc(-c4nc5ccccc5[nH]4)cc3)CC2)cc1`, half-maximal inhibition (IC50) was put at 0.17 µM.

Consider `CCc1nc(N)nc(N)c1-c1ccc(Cl)c(N(C)Cc2ccccc2)c1`, for which the IC50 amounted to 1.07 µM.

`COc1cc(C)c2c(OC3CCCCC3C(F)(F)F)c(OC)cc(NC(C)CCCN)c2n1` (stereo not given): it took 0.711 µM to reach half-maximal inhibition (IC50).

For `CCc1nc2nc(N)nc(N)c2nc1CC`, the 50% inhibitory concentration (IC50) is 0.62 µM.
